Measurements: the NIST ThermoML archive (doi:10.1021/je200964m)
Values joined by “and” are separate entries in the source; they are usually repeats but may differ in a detail not shown here. Equal values may be shown once.

What was measured:
[1] = molar heat capacity at constant pressure; mn = molality of the nth substance listed, in mol/kg; conditions: 298.15 K, 100 kPa, Liquid
[2] = mn = molality of the nth substance listed, in mol/kg; conditions: 298.15 K, 100 kPa, Liquid, Vibrating tube method

CCCC(=O)[O-].[Na+] [sodium butyrate] + O
[1], Flow calorimetry
Conditions | molar heat capacity at constant pressure [J/K/mol]
m1 = 0.01976 | 75.41
m1 = 0.04005 | 75.47
m1 = 0.06005 | 75.54
m1 = 0.08053 | 75.61
m1 = 0.102 | 75.68
m1 = 0.2495 | 76.19
m1 = 0.4997 | 77.12
m1 = 0.7508 | 78.09
m1 = 1 | 79.11
m1 = 1.993 | 83.42
m1 = 4 | 91.23
m1 = 5.997 | 97.99

[2]
Conditions | mass density [kg/m3]
m1 = 0.01976 | 997.868
m1 = 0.04005 | 998.697
m1 = 0.06005 | 999.507
m1 = 0.08053 | 1000.32
m1 = 0.102 | 1001.17
m1 = 0.2495 | 1006.98
m1 = 0.4997 | 1016.49
m1 = 0.7508 | 1025.47
m1 = 1 | 1034.04
m1 = 1.993 | 1064.55
m1 = 4 | 1109.06
m1 = 5.997 | 1136.24

O=C[O-].[Na+] [sodium methanoate] + O
Conditions | mass density, [2] [kg/m3] | molar heat capacity at constant pressure, [1] [J/K/mol]
m1 = 0.00974 | 997.482 | 74.69
m1 = 0.01004 | 997.512 | 74.71
m1 = 0.02003 | 997.907 | 74.79
m1 = 0.02065 | 997.932 | 74.7
m1 = 0.04058 | 998.75 | 74.71
m1 = 0.04064 | 998.753 | 74.79
m1 = 0.06027 | 999.589 | 74.76
m1 = 0.06153 | 999.685 | 74.66
m1 = 0.08026 | 1000.45 | 74.73
m1 = 0.08098 | 1000.47 | 74.63
m1 = 0.1002 | 1001.25 | 74.72
m1 = 0.1006 | 1001.27 | 74.62
m1 = 0.1998 | 1005.36 | 74.62
m1 = 0.25 | 1007.39 | 74.49
m1 = 0.5003 | 1017.41 | 74.3
m1 = 0.5005 | 1017.34 | 74.41
m1 = 0.75 | 1027.24 | 74.33
m1 = 0.7507 | 1027.17 | 74.18
m1 = 1 | 1036.61 | 73.86
m1 = 1.008 | 1037.01 | 74.26
m1 = 2 | 1072.42 | 74.32
m1 = 2.576 | 1092.07 | 75.46
m1 = 3.968 | 1134.81 | 75.93
m1 = 4 | 1135.38 | 75.98
m1 = 5.998 | 1188.91 | 78.43
m1 = 6.036 | 1190.2 | 77.81
m1 = 8.011 | 1235.13 | 81.13
m1 = 10.01 | 1275.62 | 84.02

CCC(=O)[O-].[Na+] [sodium propanoate] + O
[1], Flow calorimetry
Conditions | molar heat capacity at constant pressure [J/K/mol]
m1 = 0.01002 | 75.35
m1 = 0.02029 | 75.37
m1 = 0.04064 | 75.41
m1 = 0.06027 | 75.44
m1 = 0.08026 | 75.47
m1 = 0.1002 | 75.51
m1 = 0.1998 | 75.69
m1 = 0.5005 | 76.31
m1 = 0.7511 | 76.87
m1 = 1 | 77.48
m1 = 1.982 | 80.19
m1 = 3.972 | 86.51
m1 = 5.982 | 92.7
m1 = 8.004 | 98.52

[2]
Conditions | mass density [kg/m3]
m1 = 0.01002 | 997.478
m1 = 0.02029 | 997.9
m1 = 0.04064 | 998.74
m1 = 0.06027 | 999.536
m1 = 0.08026 | 1000.38
m1 = 0.1002 | 1001.21
m1 = 0.1998 | 1005.24
m1 = 0.5005 | 1016.94
m1 = 0.7511 | 1026.37
m1 = 1 | 1035.33
m1 = 1.982 | 1067.68
m1 = 3.972 | 1119.87
m1 = 5.982 | 1158.32
m1 = 8.004 | 1185.89

CC(=O)[O-].[Na+] [sodium ethanoate] + O
[1], Flow calorimetry
Conditions | molar heat capacity at constant pressure [J/K/mol]
m1 = 0.01999 | 75.34
m1 = 0.02177 | 75.33
m1 = 0.03988 | 75.34
m1 = 0.04259 | 75.33
m1 = 0.06003 | 75.33
m1 = 0.06004 | 75.33
m1 = 0.08011 | 75.34
m1 = 0.08018 | 75.34
m1 = 0.1002 | 75.34
m1 = 0.25 | 75.37
m1 = 0.4956 | 75.48
m1 = 0.4998 | 75.48
m1 = 0.9999 | 75.86
m1 = 1.997 | 77.13
m1 = 2.003 | 77.13
m1 = 4.532 | 81.99

[2]
Conditions | mass density
m1 = 0.01999 | 997.898 kg/m3
m1 = 0.02177 | 997.982 kg/m3
m1 = 0.03988 | 998.731 kg/m3
m1 = 0.04259 | 998.856 kg/m3
m1 = 0.06003 | 999.574 kg/m3
m1 = 0.06004 | 999.577 kg/m3
m1 = 0.08011 | 1000.41 kg/m3
m1 = 0.08018 | 1000.42 kg/m3
m1 = 0.1002 | 1001.25 kg/m3 and 1001.25 kg/m3
m1 = 0.25 | 1007.38 kg/m3
m1 = 0.4956 | 1017.13 kg/m3
m1 = 0.4998 | 1017.29 kg/m3
m1 = 0.9999 | 1036.14 kg/m3
m1 = 1.997 | 1070.48 kg/m3
m1 = 2.003 | 1070.59 kg/m3
m1 = 4.532 | 1141.59 kg/m3
